Test results published in US20110105496A1, “Methods For The Treatment Of Myosin Heavy Chain-Mediated Conditions Using 4,7-Dihydrothieno[2,3-B]Pyridine Compounds” (priority 2005, published 2011).
Read-outs that look alike come from different tables or passages of the source.

System: alpha-MyHC
Experiment: alpha-MyHC cytoblot process in neonatal rat ventricular myocytes (NRVM)
Type: cell-based
Experimental: In vitro activity of each compound is measured using the alpha-MyHC cytoblot process. Briefly, neonatal rat ventricular myocytes (NRVM) at 120,000 cells/ml in HyQ DME/High modified culture media supplemented with 10% charcoal/dextran treated FBS, 0.1% Nutridoma-SP, 1:100 MEM non-essential amino acids, 1:50 MEM amino acids solution w/o L-Gln, 1 mM sodium pyruvate and 1:100 P/S/G, are plated on gelatin coated sterile 384-well plates (Costar 3712) at 6,000 cells per well. Cells are incubated overnight at 37° C. in 5% CO2 100% humidity. Following overnight growth the media is changed to HyQ DME/High modified culture media supplemented with 0.3% Nutridoma-SP, 1:100 MEM non-essential amino acids, 1:50 MEM amino acids solution w/o L-Gln, 1 mM sodium pyruvate and 1:100 P/S/G. Cells are then dosed with serial dilutions of each compound in DMSO. Each concentration in the dose range is dosed in quadruplicate. Dosing is done in such a way so that the final DMSO concentration was 0.44%. Compound dilutions are 3-fold with the final top concentration of 10 uM. […] Following dosing, the cells are incubated for 72 hours at 37° C. in 5% CO2 100% humidity and then processed with the cytoblot method. Briefly, cell media is aspirated and cell monolayers washed with PBS and fixed with 100% methanol for 30 minutes. Fixed cells are then blocked with PBS, 0.05% Tween-20, 1% BSA, for 1 hour. Following blocking, cells are incubated with primary alpha-MyHC-specific antibody antibody (1:30 dilution of BA-G5 hybridoma conditioned media, ATCC HB276) for 1 hour. Following incubation with the primary antibody, cells are washed with PBS, 0.05% Tween-20, 1% BSA and incubated with secondary antibody (1:1000 dilution, goat-anti-mouse HRP, Southern Biotech, 1031-05) for 1 hour. Following incubation with the secondary antibody, wells are washed and incubated in SuperSignal, West Dura HRP-luminescence substrate for 30 seconds under shaking at room temperature. Luminescence is measured using a Packard Fusion plate reader. […] RLU values are converted into per cent fraction of low control and dose responses are fitted to a sigmoidal 4-parameter equation (XLFit, IDBS) where the EC50 and Max Plateau values were extracted. […] Max Plateau is the […] maximum value determined by the dose response fit.

[1] = Table 1, NRVM, 72 hours, maximum of dose response fit, low control = vehicle only
[2] = Table 2 (esters), NRVM, 72 hours, maximum of dose response fit
[3] = Table 2 (esters), NRVM, 72 hours, alpha-MyHC cytoblot
[4] = Table 1, NRVM, 72 hours, alpha-MyHC cytoblot, mean ± spread

Structure (SMILES) | EC50 [4] [µM] | Max Plateau [1] | further results
CCC(=O)C1=C(CC)Nc2sc(C(=O)c3ccc(Cl)c(Cl)c3)c(N)c2C1c1ccncc1 (stereo not shown) [Compound 104, 1-[3-amino-2-(3,4 dichloro-benzoyl)-6-ethyl-4 pyridin-4-yl-4,7 dihydro-thieno[2,3-b]pyridin-5-yl]-propan-1-one] |  | 242.77 ± 33.52 per cent fraction of low control | 
CCOC(=O)C1=C(CC)Nc2sc(C(=O)c3ccc(F)c(F)c3)c(N)c2C1c1ccncc1F (stereo not shown) [Compound 173] |  |  | Max Plateau [2]: 257.43 per cent fraction of low control
COC(=O)C1=C(CCc2ccccc2)Nc2sc(C(=O)c3ccc(Cl)c(Cl)c3)c(N)c2C1c1ccccc1F (stereo not shown) [Compound 154] |  |  | EC50 [3]: 0.303 µM; Max Plateau [2]: 125.87 per cent fraction of low control
CCC1=C(C(=O)OCCOC)C(c2ccccc2F)c2c(sc(C(=O)c3cccc(Cl)c3)c2N)N1 (single isomer, unassigned) [Compound 187] |  |  | Max Plateau [2]: 162.93 ± 10.10 per cent fraction of low control
CC(=O)C1=C(C)Nc2sc(C(=O)c3cccc([N+](=O)[O-])c3)c(N)c2C1c1ccccc1Cl (stereo not shown) [Compound 4, 1-[3-amino-4-(2-chloro-phenyl)-6-methyl-2-(3-nitro-benzoyl)-4,7dihydro-thieno[2,3-b]pyridin-5-yl]-ethanone] |  | 244.20 ± 37.25 per cent fraction of low control | 
CCC(=O)C1=C(CC)Nc2sc(C(=O)c3cc(C(F)(F)F)cc(C(F)(F)F)c3)c(N)c2C1c1ccccc1 (stereo not shown) [Compound 73] | 0.00892 | 205.27 ± 38.78 per cent fraction of low control | 
COc1ccccc1C1C(C(C)=O)=C(C)Nc2sc(C(=O)c3ccccc3)c(N)c21 (stereo not shown) [Compound 18] | 0.876 | 215.25 ± 44.08 per cent fraction of low control | 
CC(=O)C1=C(C)Nc2sc(C(=O)c3ccccc3)c(N)c2C1C1CCCCC1 (stereo not shown) [Compound 26] | 0.943 | 185.33 ± 55.04 per cent fraction of low control | 
CC(=O)C1=C(C)Nc2sc(C(=O)c3ccc(C)c(C)c3)c(N)c2C1c1ccccc1 (stereo not shown) [Compound 8] | 0.797 | 172.29 ± 9.66 per cent fraction of low control | 
CCNC(=O)C1=C(C)Nc2sc(C(=O)c3ccc(Cl)c(Cl)c3)c(N)c2C1c1ccccc1 (racemic) [Compound 195] |  |  | EC50 (Table 3 (amides), NRVM, 72 hours, alpha-MyHC cytoblot): 337 µM; Max Plateau (Table 3 (amides), NRVM, 72 hours, maximum of dose response fit): 126.67 ± 23.09 per cent fraction of low control
CC(=O)NCCOC(=O)C1=C(C)Nc2sc(C(=O)c3ccc(Cl)c(Cl)c3)c(N)c2C1c1ccccc1 (stereo not shown) [compound 214] |  |  | Max Plateau: 100.00 ± 0.00
CCC1=C(C(=O)OC)C(c2c(F)cccc2F)c2c(sc(C(=O)c3cccc([N+](=O)[O-])c3)c2N)N1 (stereo not shown) [Compound 141] |  |  | EC50 [3]: 0.0143 µM; Max Plateau [2]: 261.69 per cent fraction of low control
CCOC(=O)C1=C(C)Nc2sc(C(=O)c3cccc(Br)c3)c(N)c2C1(C)c1ccccc1 (stereo not shown) [Compound 197] |  |  | EC50 (Rattus norvegicus, Ventricular myocyte, Table 4, NRVM, 72 hours, alpha-MyHC cytoblot): 0.792 µM; Emax (Rattus norvegicus, Ventricular myocyte, Table 4, NRVM, 72 hours, maximum of dose response fit, read-out: Max Plateau): 160 ± 10.9%
COCCOCN1C(C)=C(C(C)=O)C(c2ccccc2)c2c1sc(C(=O)c1ccccc1)c2N (racemic) [Compound 209] |  |  | EC50 (Table 5 (R^4 substituted), NRVM, 72 hours, alpha-MyHC cytoblot): 0.393 µM; Max Plateau (Table 5 (R^4 substituted), NRVM, 72 hours, maximum of dose response fit): 192.74 per cent fraction of low control
CCC1=C(C(=O)OC)C(c2ccccc2F)c2c(sc(C(=O)c3cccc(C#N)c3)c2N)N1 (stereo not shown) [Compound 164] |  |  | EC50 [3]: 0.00283 µM; Max Plateau [2]: 279.90 per cent fraction of low control
CCC1=C(C(=O)OCCNC(=O)OC(C)(C)C)C(c2ccccc2F)c2c(sc(C(=O)c3ccc(Cl)c(Cl)c3)c2N)N1 (stereo not shown) [Compound 222, Bac protected 3-amino-2-(3,4 dichloro-benzoyl)-4-(2 fluoro-phenyl)-6-methyl-4,7 dihydro-thieno[2,3-b]pyridine-5-carboxylic acid 2-amino-ethyl ester] |  |  | EC50: 0.0943 µM; Max Plateau: 128.75 ± 8.38
CC1=C(C(=O)OC(C)C)C(c2ccccc2)c2c(sc(C(=O)c3ccc(Cl)c(Cl)c3)c2N)N1 (stereo not shown) [Compound 135] |  |  | EC50 [3]: 0.118 µM; Max Plateau [2]: 186.32 per cent fraction of low control
CCCC(=O)C1=C(CCC)Nc2sc(C(=O)c3ccc(F)c(F)c3)c(N)c2C1c1ccccc1 (stereo not shown) [Compound 95] | 0.61 | 147.01 ± 6.43 per cent fraction of low control | 
CCC1=C(C(=O)OCCOC)C(c2ccnc(F)c2)c2c(sc(C(=O)c3cccc(C#N)c3)c2N)N1 (racemic) [Compound 192] |  |  | Max Plateau [2]: 237.07 ± 13.03 per cent fraction of low control
COC(=O)C1=C(C(C)C)Nc2sc(C(=O)c3ccc(Cl)c(Cl)c3)c(N)c2C1c1cccc([N+](=O)[O-])c1 (stereo not shown) [Compound 134] |  |  | Max Plateau [2]: 98.33 per cent fraction of low control
CCC1=C(C(=O)OCCN)C(c2ccccc2F)c2c(sc(C(=O)c3ccc(Cl)c(Cl)c3)c2N)N1 (stereo not shown) [compound 221] |  |  | EC50: 0.0227 µM; Max Plateau: 156.50 ± 9.76
CC(=O)C1=C(C)Nc2sc(C(=O)c3ccccc3)c(N)c2C1c1ccccc1 (stereo not shown) [Compound 3] | 0.797 | 250.88 ± 32.62 per cent fraction of low control | 
CCOC(=O)C1=C(CC)Nc2sc(C(=O)c3cc(Cl)ccc3Cl)c(N)c2C1c1ccccc1 (stereo not shown) [Compound 146] |  |  | EC50 [3]: 0.00403 µM; Max Plateau [2]: 213.49 per cent fraction of low control

Continued, in another order:

EC50 [4] [µM] | Structure (SMILES) | Max Plateau [1] | further results
0.0102 | CCC(=O)C1=C(CC)Nc2sc(C(=O)c3cc(Cl)ccc3Cl)c(N)c2C1c1ccccc1 (stereo not shown) [Compound 64] | 281.39 ± 54.54 per cent fraction of low control | 
0.00164 | CCC(=O)C1=C(CC)Nc2sc(C(=O)c3cccc([N+](=O)[O-])c3)c(N)c2C1c1ccccc1F (stereo not shown) [Compound 97] | 247.24 ± 38.88 per cent fraction of low control | 
0.35 | CCC(=O)C1=C(CC)Nc2sc(C(=O)c3ccc(Cl)c(Cl)c3)c(N)c2C1c1ccc(OC)cc1F (stereo not shown) [Compound 81] | 184.00 ± 15.51 per cent fraction of low control | 
2.14 | CCC(=O)C1=C(CC)Nc2sc(C(=O)c3cccc(C(=O)O)c3)c(N)c2C1c1ccccc1 (stereo not shown) [Compound 77] | 220.00 ± 10.00 per cent fraction of low control | 
0.0242 | CCC(=O)C1=C(CC)Nc2sc(C(=O)c3cc(F)cc(F)c3)c(N)c2C1c1ccccc1 (stereo not shown) [Compound 76] | 230.70 ± 23.22 per cent fraction of low control | 
1.95 | CC(=O)C1=C(C)Nc2sc(C(=O)c3ccc(Cl)c(Cl)c3)c(N)c2C1c1cc(Cl)cc(Cl)c1 (stereo not shown) [Compound 33] | 143.15 ± 21.22 per cent fraction of low control | 
0.0148 | CCC(=O)C1=C(CC)Nc2sc(C(=O)c3ccccc3Cl)c(N)c2C1c1ccccc1 (stereo not shown) [Compound 82] | 245.96 ± 30.73 per cent fraction of low control | 
0.00618 | CCC(=O)C1=C(CC)Nc2sc(C(=O)c3ccc(Cl)c(Cl)c3)c(N)c2C1c1ccccc1 (stereo not shown) [Compound 36] | 256.56 ± 24.93 per cent fraction of low control | 
0.0581 | CCC(=O)C1=C(CC)Nc2sc(C(=O)c3ccc(Cl)c(Cl)c3)c(N)c2C1c1ccccc1Cl (stereo not shown) [Compound 53] | 259.43 ± 26.30 per cent fraction of low control | 
0.0864 | CC(=O)C1=C(C)Nc2sc(C(=O)c3ccc(Cl)c(Cl)c3)c(N)c2C1c1ccccc1F (stereo not shown) [Compound 27] | 220.13 ± 23.10 per cent fraction of low control | 
0.161 | CC(=O)C1=C(C)Nc2sc(C(=O)c3ccc(Cl)c(Cl)c3)c(N)c2C1c1ccc(F)cc1 (stereo not shown) [Compound 50] | 190.79 ± 27.94 per cent fraction of low control | 
